Measurements published in patent US10105410B2, “Heparanase inhibitory peptides and use thereof for treating clinical pathologies” (RAMBAM MED-TECH LTD., priority 2014, dated 2018).

Tests used:
[1] = test system: B16 mouse melanoma tumors; test: Tumor vascularization, MSB stained tumor sections; format: in vivo, mice; details: MSB staining
[2] = test system: IVC thrombus; test: Inferior vena cava (IVC) thrombosis model; format: in vivo, mice; details: 2 mg/kg s.c. immediately before IVC exposure; no heparanase injected
Description: A large thrombus located distal to the IVC ligation (FIG. 6A, panel I) and after IVC was harvested (FIG. 6A, panel II), was observed. This observation was verified by H&E staining (FIG. 6A, panel III, ×10; FIG. 6A, panel IV, ×100). In subsequent experiments, peptides 3, 4 and 5 were introduced subcutaneously, at a dose of 2 mg/kg, immediately before the IVC exposure. Heparanase was not injected in this line of experiments. Each experimental group included 5 mice. The IVC was re-exposed (FIG. 6A, panel V) and then dissected (FIG. 6A, panel VI). Note that only engorged blood was present and thrombus distal to the IVC ligation was absent. This observation was verified by H&E staining (FIG. 6A, panel VII, ×10; FIG. 6A, panel VIII, ×100). […] Images were visualized through a 0.82 MDC objective lens, captured with a Nikon […] digital camera (Nikon, Tokyo, Japan), and processed with Adobe Photoshop software (Adobe Systems, San Jose, Calif.).

[3] = test system: arterial thrombus in the carotid artery; test: Carotid artery 90% stenosis arterial thrombosis, MSB staining; format: in vivo, mice; details: single s.c. injection, 2 mg/kg; 24 hours after 90% stenosis
Description: In a complimentary experiment, mice returned to normal activity after being subjected to stenosis of 90% of the carotid artery. 24 hours later mice were sacrificed. Sections of the carotid artery were analyzed by MSB (Martin, Scarlet, Blue) staining. In the treatment group, following a single s.c. injection of the peptides, almost no fibrin (thrombus) was formed, while in the control group large arterial thrombus was observed. The results are exemplified in FIG. 6B for a control mouse (left panel) and a mouse treated with 2 mg/kg of the peptide set forth in SEQ ID NO: 4 (right panel).

[4] = test system: procoagulant effect of heparanase; test: Heparanase-induced coagulation activation in ICR mice, plasma TAT ELISA; format: in vivo; details: heparanase 0.5 mg/kg i.p.; peptide 1 or 2 mg/kg s.c. after 30 min; blood after 4 hours
Description: (§1) Thrombin-antithrombin complex (TAT) complex was evaluated according to the manufacturer recommendations by Enzygnost® TAT micro ELISA purchased from Siemens (Marburg, Germany). D-dimer assay was performed on the STA-R evolution analyzer (Diagnostica Stago) using recombinant STA-LIATEST D-DI kit (Diagnostica Stago).
Heparanase (Hepa) was injected intra-peritoneal to ICR mice at a dose of 0.5 mg/kg. After 30 min. peptides corresponding to SEQ ID NOs: 2-5 and 7 were injected at a dose of 1 mg/kg (dashed fill) or 2 mg/kg (solid fill) subcutaneously between the shoulders, into the loose skin over the neck. Blood was drawn after 4 hours, and the plasma was analyzed by ELISA for thrombin-antithrombin (TAT) levels.

[5] = test system: coagulation activation; test: Intra-peritoneal heparanase injection to ICR mice, plasma TAT, D-Dimer, IL-6; format: in vivo; details: 0.5 mg/kg i.p.; blood after 4 hours
Description: as §1
Material and method used as in Example 1. Heparanase (Hepa) was injected intra-peritoneal at a dose of 0.5 mg/kg to ICR mice. After 4 hours blood was drawn and the plasma was studied by ELISA to thrombin-antithrombin complex (TAT), D-Dimer as markers of coagulation activation and IL-6 as marker of sepsis severity. Please note that when compared with the control group (PBS) heparanase (Hepa) increased the levels of TAT and D-Dimer in a similar magnitude to that of LPS injected at a dose of 5 mg/kg that cause a moderate sepsis (FIG. 1A, B).

Molecule	clot formation / thrombus distal to the IVC ligation [2]	procoagulant effect of heparanase (plasma TAT levels) [4]	further results
AEICLLPLDYGPCR [SEQ ID NO: 4, peptide derived from TFPI-2]	absent	–	tumor vascularization [1]: little to null vascularization; fibrin (thrombus) formation in carotid artery [3]: early thrombus
ICLLPLDYGPCRAL [SEQ ID NO: 3, peptide derived from TFPI-2]	absent	–	–
NANNFYTWEAC [SEQ ID NO: 7, peptide derived from TFPI-2]	–	partially inhibited	–
NNAEICLLPLDYGP [SEQ ID NO: 5, peptide derived from TFPI-2]	absent	–	–
NNFYTWEACDDACW [SEQ ID NO: 2, peptide derived from TFPI-2]	–	partially inhibited	–
heparanase: Single chain GS3 heparanase construct comprising the 8 and 50 kDa subunits, purified from baculovirus-infected cells (protein) QDVVDLDFFTQEPLHLVSPSFLSVTIDANLATDPRFLILLGSPKLRTLARGLSPAYLRFGGTKTDFLIFDPKKESTFEERSYWQSQVNQDICKYGSIPPDVEEKLRLEWPYQEQLLLREHYQKKFKNSTYSRSSVDVLYTFANCSGLDLIFGLNALLRTADLQWNSSNAQLLLDYCSSKGYNISWELGNEPNSFLKKADIFINGSQLGEDFIQLHKLLRKSTFKNAKLYGPDVGQPRRKTAKMLKSFLKAGGEVIDSVTWHHYYLNGRTATKEDFLNPDVLDIFISSVQKVFQVVESTRPGKKVWLGETSSAYGGGAPLLSDTFAAGFMWLDKLGLSARMGIEVVMRQVFFGAGNYHLVDENFDPLPDYWLSLLFKKLVGTKVLMASVQGSKRRKLRVYLHCTNTDNPRYKEGDLTLYAINLHNVTKYLRLPYPFSNKQVDKYLLRPLGPHGLLSKSVQLNGLTLKMVDDQTLPPLMEKPLRPGSSLGLPAFSYSFFVIRNAKVAACI	–	–	D-Dimer level compared with control group (PBS) [5]: increased; IL-6 level compared with control group [5]: did not increase; TAT level compared with control group (PBS) [5]: increased
